# From ChEMBL document CHEMBL1127412, “PRO_LIGAND: an approach to de novo molecular design. 2. Design of novel molecules from molecular field analysis (MFA) models and pharmacophores” (J Med Chem, 1994)
# pIC50: −log10 of the molar value. Non-standard residues stand in square brackets, D forms with d. Residues, ends and D or L forms follow the SMILES beside them. Nle = CCCC[C@H](N)C(=O)O
# Molecular target: Angiotensin-converting enzyme (Homo sapiens, UniProt P12821)
# Test: Inhibition against ACE.
row,SMILES,pIC50
1,C[C@H](NC(=O)[C@@H](N)CCCNC(=N)N)C(=O)N1CCC[C@H]1C(=O)O (H-Arg-Ala-Pro-OH),4.80
2,CC[C@H](C)[C@H](N)C(=O)N[C@@H](Cc1ccc(O)cc1)C(=O)O (H-Ile-Tyr-OH),5.43
3,CC(C)C[C@H](N)C(=O)N[C@@H](C)C(=O)N1CCC[C@H]1C(=O)O (H-Leu-Ala-Pro-OH),5.64
4,C[C@H](NC(=O)[C@@H](N)Cc1ccccc1)C(=O)N1CCC[C@H]1C(=O)O (H-Phe-Ala-Pro-OH),5.38
5,N[C@@H](Cc1ccccc1)C(=O)N1CCC[C@H]1C(=O)N1CCC[C@H]1C(=O)O (H-Phe-Pro-Pro-OH),4.11
6,CCCC[C@H](N)C(=O)N[C@@H](C)C(=O)N1CCC[C@H]1C(=O)O (H-[Nle]-Ala-Pro-OH),6.15
